Where a name gives a salt, the structure may show the parent alone. Read-outs that look alike come from different tables or passages of the source.
Columns and labels:
[1] = target: NMDA receptor subunits 1A/2A (NR1A+NR2A) (Rattus norvegicus, UniProt P35439+Q00959); experiment: Electrophysiological assay at cloned NMDA receptor subunits expressed in Xenopus oocytes, 1A/2A; type: cell-based
Description: (§1) Electrophysiological Assays at NMDA Receptor Subunits
(§2) The clones were transformed into appropriate host bacteria and plasmid preparations were made with conventional DNA purification techniques. A sample of each clone was linearized by restriction enzyme digestion and cRNA was synthesized with T3 RNA polymerase. The cRNA was diluted to 400 ng/μl and stored in 1 μl aliquots at −80° C. until injection.
(§3) The Xenopus oocyte Expression System
(§4) Follicle-enclosed oocytes were micro-injected with 1:1 mixtures of cRNA:NR1A+NR2A, 2B, 2C or 2D; injecting ˜2,5, or 20 ng of RNA encoding each receptor subunit. NR1A encoding cRNA was injected alone at ˜20 ng. Oocytes were stored in Barth's medium containing (in mM):NaCl, 88; KCl, 1; CaCl2, 0.41; Ca(NO3)2, 0.33; MgSO4, 0.82 NaHCO3, 2.4; HEPES 5, pH 7.4, with 0.1 mg/ml gentamicin sulphate. While oocytes were still surrounded by enveloping ovarian tissues the Barth's medium was supplemented with 0.1% bovine serum.
(§5) Electrical recordings were made using a conventional two-electrode voltage clamp (Dagan TEV-200) over periods ranging between 3-14 days following injection. […] Drugs were applied by bath perfusion. Using oocytes expressing different subunit combinations of NMDA receptor, NMDA currents were activated by co-application of glutamate and glycine. Inhibitory potency of the novel antagonists was assessed on responses elicited by fixed concentrations of glutamate and glycine, by measuring reductions in current induced by progressively increasing concentrations of antagonists.
(§6) Concentration-inhibition curves were fit with equation 1.
(§7) in which Icontrol is the current evoked by agonists alone, pIC50=−log IC50, IC50 is the concentration of antagonist that produces half maximal inhibition, and n is the slope factor. […] For incomplete curves analysis by fitting was unreliable and IC50 values were calculated by simple regression over linear portions of the curves (Origin: Microcal Software).

[2] = target: NMDA receptor subunits 1A/2B (NR1A+NR2B) (Rattus norvegicus, UniProt P35439+Q00960); experiment: Electrophysiological assay at cloned NMDA receptor subunits expressed in Xenopus oocytes, 1A/2B; type: cell-based
Sequence of NMDA receptor subunits 1A/2B (NR1A+NR2B) (Q00960 27-1482, other chains not shown): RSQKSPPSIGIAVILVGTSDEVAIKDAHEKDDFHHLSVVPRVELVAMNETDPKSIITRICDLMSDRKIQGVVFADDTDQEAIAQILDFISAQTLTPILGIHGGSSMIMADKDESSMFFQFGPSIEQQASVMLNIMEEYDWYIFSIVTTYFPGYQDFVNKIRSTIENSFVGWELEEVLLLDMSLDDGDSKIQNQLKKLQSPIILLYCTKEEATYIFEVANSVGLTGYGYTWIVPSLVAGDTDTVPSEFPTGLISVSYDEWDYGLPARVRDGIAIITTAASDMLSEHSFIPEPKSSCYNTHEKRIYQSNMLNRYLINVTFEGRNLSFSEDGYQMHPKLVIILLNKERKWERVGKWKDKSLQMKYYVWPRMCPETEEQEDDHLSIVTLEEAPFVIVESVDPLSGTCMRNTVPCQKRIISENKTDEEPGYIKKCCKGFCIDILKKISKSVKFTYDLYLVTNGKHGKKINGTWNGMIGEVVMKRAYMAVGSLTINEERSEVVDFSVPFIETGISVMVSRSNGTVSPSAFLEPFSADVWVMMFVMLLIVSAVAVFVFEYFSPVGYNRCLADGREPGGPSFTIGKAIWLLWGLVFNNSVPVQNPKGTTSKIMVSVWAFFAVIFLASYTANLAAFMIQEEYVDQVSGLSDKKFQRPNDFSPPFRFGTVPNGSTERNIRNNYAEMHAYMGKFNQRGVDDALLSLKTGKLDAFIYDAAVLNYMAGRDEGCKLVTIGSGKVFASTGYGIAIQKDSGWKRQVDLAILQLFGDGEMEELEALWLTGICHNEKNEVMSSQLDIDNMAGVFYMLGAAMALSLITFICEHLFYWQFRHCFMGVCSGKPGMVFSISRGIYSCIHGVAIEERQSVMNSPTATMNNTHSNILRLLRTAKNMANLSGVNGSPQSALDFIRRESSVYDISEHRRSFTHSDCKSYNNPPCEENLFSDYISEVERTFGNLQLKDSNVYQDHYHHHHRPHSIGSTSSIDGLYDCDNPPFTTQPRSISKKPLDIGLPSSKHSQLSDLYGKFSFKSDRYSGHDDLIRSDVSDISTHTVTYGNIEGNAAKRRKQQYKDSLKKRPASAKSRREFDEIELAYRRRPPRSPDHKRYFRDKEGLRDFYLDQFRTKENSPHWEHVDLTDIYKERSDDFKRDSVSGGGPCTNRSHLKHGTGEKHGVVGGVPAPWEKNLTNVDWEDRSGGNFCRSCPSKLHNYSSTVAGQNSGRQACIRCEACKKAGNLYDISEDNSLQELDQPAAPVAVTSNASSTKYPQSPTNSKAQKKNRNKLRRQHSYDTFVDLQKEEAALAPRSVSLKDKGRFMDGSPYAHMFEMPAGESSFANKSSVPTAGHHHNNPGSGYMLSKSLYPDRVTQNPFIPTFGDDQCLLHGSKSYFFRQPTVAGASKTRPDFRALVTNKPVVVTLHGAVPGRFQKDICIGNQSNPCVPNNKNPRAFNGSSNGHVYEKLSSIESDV
Description: as §1, §2, §3, §4, §5, §6, §7

[3] = target: NMDA receptor subunits 1A/2C (NR1A+NR2C) (Rattus norvegicus, UniProt P35439+Q00961); experiment: Electrophysiological assay at cloned NMDA receptor subunits expressed in Xenopus oocytes, 1A/2C; type: cell-based
Sequence of NMDA receptor subunits 1A/2C (NR1A+NR2C) (Q00961 20-1237, other chains not shown): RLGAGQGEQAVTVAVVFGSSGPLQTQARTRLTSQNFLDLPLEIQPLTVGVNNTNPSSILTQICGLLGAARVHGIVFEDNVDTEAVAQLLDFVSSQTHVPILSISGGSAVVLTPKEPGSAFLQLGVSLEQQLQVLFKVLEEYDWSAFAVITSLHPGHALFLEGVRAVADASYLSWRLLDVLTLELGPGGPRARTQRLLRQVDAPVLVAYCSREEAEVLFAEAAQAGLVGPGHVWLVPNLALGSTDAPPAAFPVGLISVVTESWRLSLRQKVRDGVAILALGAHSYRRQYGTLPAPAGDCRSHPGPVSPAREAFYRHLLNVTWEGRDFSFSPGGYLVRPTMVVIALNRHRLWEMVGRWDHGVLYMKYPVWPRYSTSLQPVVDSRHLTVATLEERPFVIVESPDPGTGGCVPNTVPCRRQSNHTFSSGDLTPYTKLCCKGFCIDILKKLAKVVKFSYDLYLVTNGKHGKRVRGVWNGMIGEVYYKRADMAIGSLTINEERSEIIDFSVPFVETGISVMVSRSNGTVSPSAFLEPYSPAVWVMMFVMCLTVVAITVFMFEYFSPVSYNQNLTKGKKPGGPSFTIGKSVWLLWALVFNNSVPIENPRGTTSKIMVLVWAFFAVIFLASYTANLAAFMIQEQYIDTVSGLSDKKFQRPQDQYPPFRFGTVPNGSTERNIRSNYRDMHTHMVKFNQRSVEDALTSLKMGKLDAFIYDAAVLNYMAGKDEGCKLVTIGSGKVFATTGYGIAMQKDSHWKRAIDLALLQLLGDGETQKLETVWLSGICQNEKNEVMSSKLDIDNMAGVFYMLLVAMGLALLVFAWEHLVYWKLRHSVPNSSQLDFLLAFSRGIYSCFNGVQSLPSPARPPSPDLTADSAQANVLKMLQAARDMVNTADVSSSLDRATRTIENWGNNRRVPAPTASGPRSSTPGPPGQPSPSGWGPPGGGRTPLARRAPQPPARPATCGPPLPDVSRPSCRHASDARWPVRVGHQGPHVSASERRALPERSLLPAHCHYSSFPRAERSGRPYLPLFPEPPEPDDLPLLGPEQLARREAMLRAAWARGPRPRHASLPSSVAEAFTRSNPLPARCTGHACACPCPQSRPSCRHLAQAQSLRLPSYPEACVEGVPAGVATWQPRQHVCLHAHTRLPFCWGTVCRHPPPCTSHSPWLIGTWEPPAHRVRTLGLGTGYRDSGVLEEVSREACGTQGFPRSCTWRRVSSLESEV
Description: as §1, §2, §3, §4, §5, §6, §7

[4] = system: maximal electroshock-induced seizures; experiment: Maximal electroshock-induced seizures (MES); type: in vivo, mice; conditions: Mus musculus, read-out: MES (ED50) (mg/kg)
Description: Maximal Electroshock-induced Seizures
Seizures were induced by application of current (50 mA, 60 pulses/sec, 0.8 sec pulse width, 1 sec duration, d.c.) through saline-coated corneal electrodes using a Ugo Basile ECT device (Model 7801). […] A tonic seizure was defined as a hindlimb extension in excess of 90 degrees from the plane of the body. Results were treated in a quantal manner.

[5] = target: NMDA receptor subunits 1A/2D (NR1A+NR2D) (Rattus norvegicus, UniProt P35439+Q62645); experiment: Electrophysiological assay at cloned NMDA receptor subunits expressed in Xenopus oocytes, 1A/2D; type: cell-based; conditions: two-electrode voltage clamp, currents activated by glutamate and glycine
From the text: Electrophysiological Assays at NMDA Receptor Subunits […]
cDNA clones encoding the NR1A, NR2A, NR2B, NR2C and NR2D rat NMDA receptor subtypes were provided by Dr. P. H. Seeburg (see, Morivoshi et al., Nature (Lond.) 354:31-37 (1991); Kutsuwada et al., Nature (Lond.) 358:36-41 (1992) Monyer et al., Science (Washington. D.C.) 256:1217-1221 (1992); Ikeda et al., FEBS Lett. 313:34-38 (1992); Ishii et al., J. Biol. Chem. 268:2836-2843 (1993) for details of these clones or their mouse homologs). The clones were transformed into appropriate host bacteria and plasmid preparations were made with conventional DNA purification techniques. A sample of each clone was linearized by restriction enzyme digestion and cRNA was synthesized with T3 RNA polymerase. The cRNA was diluted to 400 ng/μl and stored in 1 μl aliquots at −80° C. until injection.
The Xenopus oocyte Expression System […]
Electrical recordings were made using a conventional two-electrode voltage clamp (Dagan TEV-200) over periods ranging between 3-14 days following injection. […] Inhibitory potency of the novel antagonists was assessed on responses elicited by fixed concentrations of glutamate and glycine, by measuring reductions in current induced by progressively increasing concentrations of antagonists. […]

[6] = cloned rat NMDA receptor in Xenopus oocytes, two-electrode voltage clamp, currents activated by glutamate and glycine, read-out: Subunits (IC50(μM)) 1A/2A
[7] = cloned rat NMDA receptor in Xenopus oocytes, two-electrode voltage clamp, currents activated by glutamate and glycine, read-out: Subunits (IC50(μM)) 1A/2B
[8] = cloned rat NMDA receptor in Xenopus oocytes, two-electrode voltage clamp, currents activated by glutamate and glycine, read-out: Subunits (IC50(μM)) 1A/2C

Sequence of NMDA receptor subunits 1A/2A (NR1A+NR2A) (Q00959 23-1464, other chains not shown): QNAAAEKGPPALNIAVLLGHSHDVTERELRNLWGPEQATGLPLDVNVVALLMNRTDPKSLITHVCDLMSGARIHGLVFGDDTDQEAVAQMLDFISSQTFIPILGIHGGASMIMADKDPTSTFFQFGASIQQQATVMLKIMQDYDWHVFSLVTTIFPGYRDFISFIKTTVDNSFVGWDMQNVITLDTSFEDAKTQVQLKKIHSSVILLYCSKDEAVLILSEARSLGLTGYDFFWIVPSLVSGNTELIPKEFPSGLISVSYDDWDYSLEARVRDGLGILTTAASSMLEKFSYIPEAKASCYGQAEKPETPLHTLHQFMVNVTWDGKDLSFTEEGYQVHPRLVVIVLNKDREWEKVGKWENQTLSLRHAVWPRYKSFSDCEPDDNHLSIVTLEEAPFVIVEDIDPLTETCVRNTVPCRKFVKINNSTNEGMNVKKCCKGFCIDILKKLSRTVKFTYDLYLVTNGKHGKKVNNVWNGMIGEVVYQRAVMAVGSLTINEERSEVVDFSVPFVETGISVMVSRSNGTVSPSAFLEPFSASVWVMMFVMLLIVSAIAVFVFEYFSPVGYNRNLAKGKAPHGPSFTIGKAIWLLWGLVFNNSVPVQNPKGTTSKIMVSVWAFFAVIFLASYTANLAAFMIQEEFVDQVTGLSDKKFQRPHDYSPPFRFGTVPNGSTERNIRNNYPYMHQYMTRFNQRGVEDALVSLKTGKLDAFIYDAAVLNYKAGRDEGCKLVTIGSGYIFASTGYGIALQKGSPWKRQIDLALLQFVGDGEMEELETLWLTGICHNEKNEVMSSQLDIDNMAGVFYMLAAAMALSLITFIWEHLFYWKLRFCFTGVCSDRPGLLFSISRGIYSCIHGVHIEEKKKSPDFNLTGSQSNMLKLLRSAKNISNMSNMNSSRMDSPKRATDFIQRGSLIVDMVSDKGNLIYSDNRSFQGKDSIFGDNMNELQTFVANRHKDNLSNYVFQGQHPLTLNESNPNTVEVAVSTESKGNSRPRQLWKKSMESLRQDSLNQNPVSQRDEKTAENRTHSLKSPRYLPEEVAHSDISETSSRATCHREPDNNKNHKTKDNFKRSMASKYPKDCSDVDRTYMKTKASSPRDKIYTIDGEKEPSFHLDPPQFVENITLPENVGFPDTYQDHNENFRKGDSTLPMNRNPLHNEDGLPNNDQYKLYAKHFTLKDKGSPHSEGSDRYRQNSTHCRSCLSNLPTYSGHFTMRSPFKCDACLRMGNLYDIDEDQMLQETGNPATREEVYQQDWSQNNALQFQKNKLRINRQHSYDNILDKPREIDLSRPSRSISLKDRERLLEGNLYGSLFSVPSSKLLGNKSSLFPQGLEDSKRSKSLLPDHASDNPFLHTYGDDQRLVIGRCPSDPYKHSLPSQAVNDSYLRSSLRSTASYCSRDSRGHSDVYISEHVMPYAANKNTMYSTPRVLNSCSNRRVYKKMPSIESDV

Row | Structure (SMILES) | melting point [°C] | IC50 [1, 6] [µM] | IC50 [2, 7] [µM] | IC50 [3, 8] [µM] | further results
1 | Fc1ccc(OCC[n+]2ccccc2Cc2ccc(Cl)cc2)cc1.[Br-] | 179 to 180 | – | – | – | –
2 | Br.c1ccc(CCCCN2CCCCC2Cc2ccccc2)cc1 (stereo not drawn) | 133 to 135 | – | – | – | –
3 | Br.c1ccc(CC2CCCCN2CCCCOc2ccccc2)cc1 (stereo not drawn) | 100 to 103 | – | – | – | –
4 | c1ccc(CC2CCCCN2Cc2ccccc2)cc1 (stereo not drawn) [Example 2, 1,2-Dibenzylpiperidine, hydrobromide] | – | 15 | 19 | 33 | –
5 | Br.c1ccc(CCCN2CCCCC2Cc2ccccc2)cc1 (stereo not drawn) [Example 4, 2-Benzyl-1-(3-phenylpropyl)piperidine, hydrobromide] | 155 to 157 | 8 | 15 | 125 | –
6 | c1ccc(CCCCN2CCCCC2Cc2ccccc2)cc1 (stereo not drawn) [Example 5, 2-Benzyl-1-(4-phenylbutyl)piperidine] | – | 5 | 8 | 55 | ED50 [4]: 4 mg/kg
7 | c1ccc(CC2CCCCN2CCOc2ccccc2)cc1 (stereo not drawn) [Example 6, 2-Benzyl-1-(2-phenoxyethyl)piperidine] | – | 17 | 25 | 130 | –
8 | Br.c1ccc(CC2CCCCN2CCCOc2ccccc2)cc1 (stereo not drawn) [Example 7, 2-Benzyl-1-(3-phenoxypropyl)piperidine hydrobromide] | 119 to 121 | 4 | 12 | 45 | ED50 [4]: 2.5 mg/kg
9 | c1ccc(CC2CCCCN2CCCCOc2ccccc2)cc1 (stereo not drawn) [Example 8, 2-Benzyl-1-(4-phenoxybutyl)piperidine] | – | 3 | 8 | 45 | ED50 [4]: 4 mg/kg
10 | Cl.Oc1ccc(OCCN2CCCCC2Cc2ccc(Cl)cc2)cc1 (stereo not drawn) [Example 25, 2-(4-Chlorobenzyl)-1-(2-(4-hydroxyphenoxy)ethyl)piperidine hydrochloride] | 229 to 230 | – | – | – | IC50 [1]: 62 µM; IC50 [2]: 4.2 µM; IC50 [3]: 160 µM
11 | Cl.Oc1ccc(OCCN2CCCCC2Cc2ccccc2)cc1 (stereo not drawn) [Example 26, 2-Benzyl-1-(2-(4-hydroxyphenoxy)ethyl)piperidine hydrochloride] | 215 to 216 | – | – | – | IC50 [1]: 80 µM; IC50 [2]: 15 µM; IC50 [3]: 150 µM

Second part, led by results:

Row | melting point [°C] | IC50 [1, 6] [µM] | IC50 [2, 7] [µM] | IC50 [3, 8] [µM] | Structure (SMILES) | further results
12 | 136 to 140 | – | – | – | Br.FC(F)(F)c1ccccc1OCCCCN1CCCCC1Cc1ccccc1 (stereo not drawn) | –
13 | 143.5 to 144.5 | – | – | – | Br.FC(F)(F)c1cccc(OCCCCN2CCCCC2Cc2ccccc2)c1 (stereo not drawn) | –
14 | 130 to 134 | – | – | – | Br.FC(F)(F)c1ccc(OCCCCN2CCCCC2Cc2ccccc2)cc1 (stereo not drawn) | –
15 | 119 to 123 | – | – | – | Br.Fc1cccc(OCCCCN2CCCCC2Cc2ccccc2)c1 (stereo not drawn) | –
16 | 162.5 to 164.5 | – | – | – | Br.c1ccc(CCN2CCCCC2Cc2ccccc2)cc1 (stereo not drawn) | –
17 | 137.5 to 139.5 | – | – | – | c1ccc(CC2CCCCN2CCCCCOc2ccccc2)cc1 (stereo not drawn) (as salt: hydrobromid) [Example 20, 2-Benzyl-1-(5-phenoxypentyl)piperidine hydrobromide] | –
18 | 180 to 182 | – | – | – | O=[N+]([O-])c1ccc(OCCN2CCCCC2Cc2ccccc2)cc1 (stereo not drawn) (as salt: hydrobromid) [Example 21, 2-Benzyl-1-(2-(4-nitrophenoxy)ethyl)-piperidine hydrobromide] | –
19 | 130 | – | – | – | Nc1ccc(OCCN2CCCCC2Cc2ccccc2)cc1 (stereo not drawn) (as salt: hydrobromid) [Example 22, 1-(2-(4-Aminophenoxy)ethyl)-2-benzylpiperidine dihydrobromide] | –
20 | – | 23 | 50 | > 100 | Cc1ccccc1OCC(O)CN1CCCCC1Cc1ccccc1 (stereo not drawn) [Example 18, 2-Benzyl-1-[2-hydroxy-3-(2-methyl)phenoxy]propylpiperidine] | IC50 [5]: > 300 µM
21 | – | 14 | 22 | 70 | c1ccc(CC2CCCCN2CCCCCOc2ccccc2)cc1 (stereo not drawn) [Example 20, 2-Benzyl-1-(5-phenoxypentyl)piperidine hydrobromide] | –
22 | – | 60 | 35 | 240 | O=[N+]([O-])c1ccc(OCCN2CCCCC2Cc2ccccc2)cc1 (stereo not drawn) [Example 21, 2-Benzyl-1-(2-(4-nitrophenoxy)ethyl)-piperidine hydrobromide] | –
23 | – | 80 | 6 | 180 | Nc1ccc(OCCN2CCCCC2Cc2ccccc2)cc1 (stereo not drawn) [Example 22, 1-(2-(4-Aminophenoxy)ethyl)-2-benzylpiperidine dihydrobromide] | –
24 | 163 to 165 | 55 | 22 | 160 | Cl.Fc1ccc(OCCN2CCCCC2Cc2ccc(Cl)cc2)cc1 (stereo not drawn) [Example 24, 2-(4-Chlorobenzyl)-1-(2-(4-fluorophenoxy)ethyl)piperidine hydrochloride] | –
25 | 163 to 164 | 30 | 16 | 40 | Cl.Oc1ccc(OCCCN2CCCCC2Cc2ccccc2)cc1 (stereo not drawn) [Example 27, 2-Benzyl-1-(3-(4-hydroxyphenoxy)propyl)piperidine hydrochloride] | –
26 | – | 15 | 10 | 110 | Oc1ccc(OCCCCN2CCCCC2Cc2ccccc2)cc1 (stereo not drawn) [Example 28, 2-Benzyl-1-(4-(4-hydroxyphenoxy)butyl)piperidine hydrochloride] | –
27 | – | 7.5 | 5 | 33 | O=c1[nH]c2ccc(OCCN3CCCCC3Cc3ccccc3)cc2[nH]1 (stereo not drawn) [Example 30, 2-Benzyl-1-(4-(2-oxobenzimidazol-5-oxy)ethyl)piperidine] | –

— US6534525B1, “2-substituted piperidine analogs and their use as subtype-selective NMDA receptor antagonists” (Warner-Lambert & Company, priority 1995, dated 2003)
